The text below walks through data of US6586470B1, “Insecticidal composition” (Ecoval INC, priority 1998, dated 2003).

The assay has as its system Northern corn root worm adults (diabrotica longiscornis). The experiment in a line: Spray test on Northern corn root worm adults. In kind it is in vivo. The note with it: insects sprayed, inspected after 24 hours, amounts in grams/litre. The protocol:
The insecticidal compositions being tested were formulated in aqueous solution. The amounts of the ingredients are specified in the examples, and unless stated otherwise, are expressed in grams/litre. The compositions were tested on Northern corn root worm adults (diabrotica longiscornis). The insects were treated and tested as indicated above.

With `O=C(O)CC(O)(CC(=O)O)C(=O)O` [Sample 2, citric acid], the “% Control” value is 0%, the Alive is on record as 10 and the Dead stood at 0.

On to `CC(=O)O` [Sample 15, acetic acid], for which the “% Control” value turned out to be 0%, the Alive is listed as 10 and the Dead stood at 0.

On to `CC(=O)O` [Sample 1, acetic acid], for which the “% Control” value is 0%, the Alive was found to be 10 and the Dead was found to be 0.

Consider `CC(=O)O` [Sample 18, acetic acid], for which the “% Control” value came to 30%, the Alive was found to be 7 and the Dead worked out at 3. Moreover, the “% Control” value (listed as acetic acid at 50 g/l) is on record as “partial control”.

For the compound `O=C(O)CC(O)(CC(=O)O)C(=O)O` [Sample 19, citric acid], the “% Control” value is reported as 20%, the Alive is listed as 8 and the Dead came out at 2. Also, the “% Control” value (listed as citric acid at 25 g/l) is “partial control”.
